The values that follow come from US8207172B2 (Bayer Intellectual Property GmbH, priority 2004, dated 2012).

Structures are written as SMILES.

For the assay, the system named is A431 cells (human epidermoid carcinoma). In words: In vitro tumor cell proliferation assay (Cell Titer-Glo luminescent cell viability), A431. It counts as cell-based. The note with it: A-431, 72 h, 72 hours of drug exposure, ATP luminescence readout, read-out: IC50, anti-proliferative activity (inhibition of cell proliferation). An excerpt: In vitro Tumor Cell Proliferation Assay
The tumor cell proliferation assay used to test the compounds of the present invention involves a readout called Cell Titer-Glow® Luminescent Cell Viability Assay developed by Promega® (Cunningham, B A “A Growing Issue: Cell Proliferation Assays, Modern kits ease quantification of cell growth” The Scientist 2001, 15(13), 26, and Crouch, S P et al., “The use of ATP bioluminescence as a measure of cell proliferation and cytotoxicity” Journal of Immunological Methods 1993, 160, 81-88), that measures inhibition of cell proliferation. Generation of a luminescent signal corresponds to the amount of ATP present, which is directly proportional to the number of metabolically active (proliferating) cells.
A431cells (human epidermoid carcinoma, ATCC […]) and BT474 (human breast carcinoma, ATCC […]) were plated at a density of 2.5×10^3 cells/well in 96 well black-clear bottom tissue culture plates in RPMI media with 10% Fetal Bovine Serum and incubated at 37° C. Twenty-four hours later, test compounds are added at a final concentration range from as high […] to as low 64 pM depend on the activities of the tested compounds in serial dilutions at a final DMSO concentration of 0.1%. Cells were incubated for 72 hours at 37° C. in complete growth media after addition of the test compound. After 72 hours of drug exposure, the plates were equilibrated to room temperature for approximately 30 min. Then, using a Promega Cell Titer Glo Luminescent® assay kit, lysis buffer containing 100 microliters of the enzyme luciferase and its substrate, luciferin mixture, was added to each well. The plates were mixed for 2 min on orbital shaker to ensure cell lysis and incubated for 10 min at room temperature to stabilize luminescence signal. The samples were read on VICTOR 2 using Luminescence protocol, and analyzed with Analyze5 software to generate IC50 values.

Turning to `OCC(CO)n1ncc2c1CCc1c-2sc2ncnc(Nc3ccc(OCc4cccc(F)c4)c(Cl)c3)c12` [Example 361, 2-[6-({3-chloro-4-[(3-fluorobenzyl)oxy]phenyl}amino)-4,5-dihydro-3H-pyrimido[5′,4′:4,5]thieno[2,3-e]indazol-3-yl)propane-1,3-diol], the IC50 was at most 50 µM.

Consider `Fc1ccc(Nc2ncnc3sc4c(c23)CCc2nn(CCN3CCNCC3)cc2-4)cc1Cl` [Example 20, N-(3-chloro-4-fluorophenyl)-2-(2-piperazin-1-ylethyl)-4,5-dihydro-2H-pyrimido[5′,4′:4,5]thieno[2,3-e]indazol-6-amine], for which the IC50 is at most 5 µM.

For `OCC(CO)n1ncc2c1CCc1c-2sc2ncnc(Nc3ccc4c(cnn4Cc4cccc(F)c4)c3)c12` [Example 362, 2-(6-{[1-(3-fluorobenzyl)-1H-indazol-5-yl]-amino}-4,5-dihydro-3H-pyrimido[5′,4′:4,5]thieno[2,3-e]indazol-3-yl)propane-1,3-diol], the IC50 was at most 5 µM.

On to `CN1CCN(CCn2cc3c(n2)CCc2c-3sc3ncnc(Nc4ccc(Cc5cccnc5)cc4)c23)CC1` [Example 348, 2-[2-(4-methylpiperazin-1-yl)ethyl]-N-[4-(pyridin-3-ylmethyl)phenyl]-4,5-dihydro-2H-pyrimido[5′,4′:4,5]thieno[2,3-e]indazol-6-amine], for which the IC50 was at most 50 µM.

For the compound `CN1CCN(CCn2cc3c(n2)CCc2c-3sc3ncnc(Nc4ccc(OCc5cscn5)c(Cl)c4)c23)CC1` [Example 347, N-[3-chloro-4-(1,3-thiazol-4-ylmethoxy)phenyl]-2-[2-(4-methylpiperazin-1-yl)ethyl]-4,5-dihydro-2H-pyrimido[5′,4′:4,5]thieno[2,3-e]indazol-6-amine bis(trifluoroacetate)], the IC50 was at most 50 µM.

As for `OC[C@@H](O)Cn1cc2c(n1)CCc1c-2sc2ncnc(Nc3ccc4c(cnn4Cc4cccc(F)c4)c3)c12` [Example 356, (2S)-3-(6-{[1-(3-fluorobenzyl)-1H-indazol-5-yl]amino}-4,5-dihydro-2H-pyrimido[5′,4′:4,5]thieno[2,3-e]indazol-2-yl)propane-1,2-diol], the IC50 was at most 5 µM.

`Cc1cccc(COc2ccc(Nc3ncnc4sc5c(c34)CCc3nn(C[C@@H](O)CO)cc3-5)cc2Cl)n1` [Example 352, (2R)-3-[6-({3-chloro-4-[(6-methylpyridin-2-yl)methoxy]phenyl}amino)-4,5-dihydro-2H-pyrimido[5′,4′:4,5]thieno[2,3-e]indazol-2-yl]propane-1,2-diol]: the IC50 was at most 50 µM.

Regarding `OC[C@H](O)Cn1cc2c(n1)CCc1c-2sc2ncnc(Nc3ccc4c(cnn4Cc4cccc(F)c4)c3)c12` [Example 354, (2R)-3-(6-{[1-(3-fluorobenzyl)-1H-indazol-5-yl]amino}-4,5-dihydro-2H-pyrimido[5′,4′:4,5]thieno[2,3-e]indazol-2-yl)propane-1,2-diol], the IC50 was at most 5 µM.

For the compound `Fc1cccc(COc2ccc(Nc3ncnc4sc5c(c34)CCc3c-5cnn3CCBr)cc2Cl)c1` [Example 81, 3-(2-bromoethyl)-N-{3-chloro-4-[(3-fluorobenzyl)oxy]phenyl}-4,5-dihydro-3H-pyrimido[5′,4′:4,5]thieno[2,3-e]indazol-6-amine], the IC50 is at most 50 µM.

Regarding `CN1CCN(CCn2cc3c(n2)CCc2c-3sc3ncnc(Nc4cccc(Cl)c4)c23)CC1` [Example 47, N-(3-chlorophenyl)-2-[2-(4-methylpiperazin-1-yl)ethyl]-4,5-dihydro-2H-pyrimido[5′,4′:4,5]thieno[2,3-e]indazol-6-amine], the IC50 is at most 5 µM.

For `OC[C@@H](O)Cn1cc2c(n1)CCc1c-2sc2ncnc(Nc3ccc4c(cnn4Cc4ccccc4)c3)c12` [Example 358, (2S)-3-{6-[(1-benzyl-1H-indazol-5-yl)amino]-4,5-dihydro-2H-pyrimido[5′,4′:4,5]thieno[2,3-e]indazol-2-yl}propane-1,2-diol], the IC50 is at most 5 µM.

As to `OC[C@@H](O)Cn1cc2c(n1)CCc1c-2sc2ncnc(Nc3ccc(OCc4ccccc4)c(Cl)c3)c12` [Example 357, (2S)-3-(6-{[4-(benzyloxy)-3-chlorophenyl]amino}-4,5-dihydro-2H-pyrimido[5′,4′:4,5]thieno[2,3-e]indazol-2-yl)propane-1,2-diol], the IC50 was at most 5 µM.

In the case of `Cc1cccc(COc2ccc(Nc3ncnc4sc5c(c34)CCc3nn(C[C@H](O)CO)cc3-5)cc2Cl)n1` [Example 359, (2S)-3-[6-({3-chloro-4-[(6-methylpyridin-2-yl)methoxy]phenyl}amino)-4,5-dihydro-2H-pyrimido[5′,4′:4,5]thieno[2,3-e]indazol-2-yl]propane-1,2-diol], the IC50 is at most 50 µM.

Turning to `OC[C@H](O)Cn1cc2c(n1)CCc1c-2sc2ncnc(Nc3ccc(OCc4ccccc4)c(Cl)c3)c12` [Example 355, (2R)-3-(6-{[4-(benzyloxy)-3-chlorophenyl]amino}-4,5-dihydro-2H-pyrimido[5′,4′:4,5]thieno[2,3-e]indazol-2-yl)propane-1,2-diol], the IC50 is at most 5 µM.

As for `OC[C@@H](O)Cn1cc2c(n1)CCc1c-2sc2ncnc(Nc3ccc(F)c(Cl)c3)c12` [Example 43, (S)-3-[6-(3-Chloro-4-fluoro-phenylamino)-4,5-dihydro-10-thia-2,3,7,9-tetraaza-cyclopenta[a]fluoren-2-yl}-propane-1,2-diol], the IC50 is at most 5 µM.

For the compound `OC[C@H](O)Cn1cc2c(n1)CCc1c-2sc2ncnc(Nc3ccc4c(cnn4Cc4ccccc4)c3)c12` [Example 353, (2R)-3-{6-[(1-benzyl-1H-indazol-5-yl)amino]-4,5-dihydro-2H-pyrimido[5′,4′:4,5]thieno[2,3-e]indazol-2-yl}propane-1,2-diol], the IC50 is at most 5 µM.

Take `OCC(CO)n1cc2c(n1)CCc1c-2sc2ncnc(Nc3ccc4c(cnn4Cc4cccc(F)c4)c3)c12` [Example 363, 2-(6-{[1-(3-fluorobenzyl)-1H-indazol-5-yl]amino}-4,5-dihydro-2H-pyrimido[5′,4′:4,5]thieno[2,3-e]indazol-2-yl)propane-1,3-diol]: the IC50 was at most 5 µM.

In the case of `OC[C@H](O)Cn1cc2c(n1)CCc1c-2sc2ncnc(Nc3ccc(OCc4ccccn4)c(Cl)c3)c12` [Example 350, 3-(6-{[3-chloro-4-(pyridin-2-ylmethoxy)phenyl]amino}-4,5-dihydro-2H-pyrimido[5′,4′:4,5]thieno[2,3-e]indazol-2-yl)propane-1,2-diol], the IC50 was at most 5 µM.

Turning to `OC[C@@H](O)Cn1cc2c(n1)CCc1c-2sc2ncnc(Nc3ccc(OCc4ccccn4)c(Cl)c3)c12` [Example 351, (2S)-3-(6-{[3-chloro-4-(pyridin-2-ylmethoxy)phenyl]amino}-4,5-dihydro-2H-pyrimido[5′,4′:4,5]thieno[2,3-e]indazol-2-yl)propane-1,2-diol], the IC50 was at most 5 µM.

In the case of `OCC(CO)n1cc2c(n1)CCc1c-2sc2ncnc(Nc3ccc(OCc4cccc(F)c4)c(Cl)c3)c12` [Example 360, 2-[6-({3-chloro-4-[(3-fluorobenzyl)oxy]phenyl}amino)-4,5-dihydro-2H-pyrimido[5′,4′:4,5]thieno[2,3-e]indazol-2-yl]propane-1,3-diol], the IC50 is at most 5 µM.
